In US9061980B2, “Organic compounds” (NABRIVA THERAPEUTICS, AG, priority 2007, dated 2015):
Converted amounts (≈) assume the structure as drawn. Read-outs that look alike come from different tables or passages of the source.

How the values were obtained:
Format in all cases: cell-based
[1] = system: Enterococcus faecalis ATCC29212 B4; assay: MIC determination according to CLSI; conditions: Enterococcus faecalis ATCC29212, strain B4
Source text: (§1) For example, the compounds of the present invention show antimicrobial, e.g. antibacterial, activity against gram positive bacteria, such as coagulase-positive and coagulase-negative Staphylococci, e.g. Staphylococcus aureus, Styphylococcus epidermis, Staphylococcus haemolyticus, Streptococci, e.g. Streptococcus pyogenes, Streptococcus pneumoniae, Streptococcus agalacticae, Enterococci, e.g. Enterococcus faecium and Moraxellaceae, e.g. Moraxella catarrhalis, Pasteurellaceae, e.g. Haemophilus influenzae, as well as against Mycoplasmactaceae, Chlamydiaceae, e.g. Chlamydia trachomatis, Chlamydia pneumoniae and obligatory anaerobes, e.g. Bacteroides fragilis, Clostridium difficile; in vitro in the Agar Dilution Test or Microdilution Test according to the Clinical and Laboratory Standards Institute (CLSI, former National Committee for Clinical Laboratory Standards (NCCLS) 2006, Document M7-A7 Vol. 26, No. 2: “Methods for dilution Antimicrobial Susceptibility Tests for Bacteria that Grow Aerobically—Seventh Edition, Approved Standard”; and in the in vitro determination of the antibacterial activity against anaerobic bacteria according to National Committee for Clinical Laboratory Standards (NCCLS) VOL. 24, No. 2, M11-A5, Methods for Antimicrobal Susceptibility Testing of Anaerobic Bacteria; Approved Standard; Sixth Edition (2004) and in vivo in the septicaemic mouse model against Staphylococcus aureus.
(§2) The antibacterial activity expressed as minimal inhibitory concentration (MIC) was determined according to the approved standard reference recommendations of CLSI (former NCCLS).

[2] = system: Enterococcus faecalis ATCC51299 B5; assay: MIC determination according to CLSI; conditions: Enterococcus faecalis ATCC51299, strain B5
Source text: as §1, §2

[3] = system: Escherichia coli ATCC25922 B1; assay: MIC determination according to CLSI; conditions: Escherichia coli ATCC25922, strain B1
Source text: as §1, §2

[4] = system: Moraxella catarrhalis ATCC43618 B407; assay: MIC determination according to CLSI; conditions: Moraxella catarrhalis ATCC43618, strain B407
Source text: as §1, §2

[5] = system: Staphylococcus aureus (MSSA) ATCC10390 B6; assay: MIC determination according to CLSI; conditions: Staphylococcus aureus (MSSA) ATCC10390, strain B6
Source text: as §1, §2

[6] = system: Staphylococcus aureus (MSSA) ATCC29213 B7; assay: MIC determination according to CLSI; conditions: Staphylococcus aureus (MSSA) ATCC29213, strain B7
Source text: as §1, §2

[7] = system: Streptococcus pneumoniae ATCC49619 B11; assay: MIC determination according to CLSI; conditions: Streptococcus pneumoniae ATCC49619, strain B11
Source text: as §1, §2

[8] = system: Staphylococcus aureus, Enterococcus faecalis, Streptococcus pneumoniae, Moraxella catarrhalis and Escherichia coli; assay: Antibacterial activity (MIC) against panel of clinical relevant bacterial pathogens; conditions: for activity against the clinical relevant bacterial pathogens: in vitro, statement in words
Protocol: as §2

| MIC ([1]; read-out: MIC) | MIC ([2]; read-out: MIC) | MIC ([3]; read-out: MIC) | MIC ([4]; read-out: MIC) | MIC ([5]; read-out: MIC) | MIC ([6]; read-out: MIC) | MIC ([7]; read-out: MIC) | factor by which MICs are lower than the MICs of the comparator compounds ([8]; against at least one of the strains shown in Table 1, comparators examples 3, 6, 9, 12, 14 and 17) | Structure (SMILES) | activity against the clinical relevant bacterial pathogens [8] | MIC [1] | MIC [2] | MIC [3] | MIC [4] | MIC [5] | MIC [6] | MIC [7] |
| --- | --- | --- | --- | --- | --- | --- | --- | --- | --- | --- | --- | --- | --- | --- | --- | --- |
| > 25.6 µg/mL | > 25.6 µg/mL | > 25.6 µg/mL | ≤ 0.0125 µg/mL | 0.025 µg/mL (≈ 0.0499 µM) | 0.025 µg/mL (≈ 0.0499 µM) | 0.04 µg/mL (≈ 0.0799 µM) | – | C=C[C@]1(C)C[C@@H](OC(=O)CSc2cccc(OC)c2)[C@]2(C)C(C)CCC3(CCC(=O)C32)[C@@H](C)[C@@H]1O (stereo partly shown) [Example 10, 14-O-[(3-Methoxy-phenylsulfanyl)-acetyl]-mutilin] | very good activity | – | – | – | – | – | – | – |
| – | – | – | – | – | – | – | – | C=C[C@]1(C)C[C@@H](OC(=O)COc2cccc(C)c2)[C@]2(C)[C@H](C)CC[C@]3(CCC(=O)[C@H]32)[C@@H](C)[C@@H]1O [Example 19, 14-O-[(3-Methyl-phenoxy)-acetyl]-mutilin] | – | >6.4 µg/mL | >6.4 µg/mL | >6.4 µg/mL | 0.0125 µg/mL (≈ 0.0267 µM) | 0.05 µg/mL (≈ 0.107 µM) | 0.05 µg/mL (≈ 0.107 µM) | 0.64 µg/mL (≈ 1.37 µM) |
| 12.8 µg/mL (≈ 27.2 µM) | 25.6 µg/mL (≈ 54.4 µM) | > 25.6 µg/mL | ≤ 0.0125 µg/mL | 0.025 µg/mL (≈ 0.0531 µM) | 0.025 µg/mL (≈ 0.0531 µM) | 0.04 µg/mL (≈ 0.085 µM) | – | C=C[C@]1(C)C[C@@H](OC(=O)COc2cccc(O)c2)[C@]2(C)C(C)CCC3(CCC(=O)C32)[C@@H](C)[C@@H]1O (stereo partly shown) [Example 15, 14-O-[(3-Hydroxy-phenoxy)-acetyl]-mutilin] | very good activity | – | – | – | – | – | – | – |
| > 25.6 µg/mL | > 25.6 µg/mL | > 25.6 µg/mL | 0.1 µg/mL (≈ 0.2 µM) | 0.2 µg/mL (≈ 0.399 µM) | 0.2 µg/mL (≈ 0.399 µM) | 0.16 µg/mL (≈ 0.32 µM) | – | C=C[C@]1(C)C[C@@H](OC(=O)CSc2ccccc2OC)[C@]2(C)C(C)CCC3(CCC(=O)C32)[C@@H](C)[C@@H]1O (stereo partly shown) [Example 12, 14-O-[(2-Methoxy-phenylsulfanyl)-acetyl]mutilin] | – | – | – | – | – | – | – | – |
| > 6.4 µg/mL | > 6.4 µg/mL | > 6.4 µg/mL | 0.0125 µg/mL (≈ 0.0266 µM) | 0.05 µg/mL (≈ 0.106 µM) | 0.05 µg/mL (≈ 0.106 µM) | 0.16 µg/mL (≈ 0.34 µM) | – | C=C[C@]1(C)C[C@@H](OC(=O)COc2ccccc2O)[C@]2(C)C(C)CCC3(CCC(=O)C32)[C@@H](C)[C@@H]1O (stereo partly shown) [Example 17, 14-O-[(2-Hydroxy-phenoxy)-acetyl]-mutilin] | – | – | – | – | – | – | – | – |
| > 6.4 µg/mL | > 6.4 µg/mL | > 6.4 µg/mL | 0.0125 µg/mL (≈ 0.0258 µM) | 0.025 µg/mL (≈ 0.0516 µM) | 0.05 µg/mL (≈ 0.103 µM) | 0.16 µg/mL (≈ 0.33 µM) | – | C=C[C@]1(C)C[C@@H](OC(=O)CSc2cccc(C)c2)[C@]2(C)C(C)CCC3(CCC(=O)C32)[C@@H](C)[C@@H]1O (stereo partly shown) [Example 14, 14-O-[(3-Methyl-phenylsulfanyl)-acetyl]-mutilin] | – | – | – | – | – | – | – | – |
| > 25.6 µg/mL | > 25.6 µg/mL | > 25.6 µg/mL | ≤ 0.0125 µg/mL | ≤ 0.0125 µg/mL | ≤ 0.0125 µg/mL | 0.02 µg/mL (≈ 0.0411 µM) | – | C=C[C@]1(C)C[C@@H](OC(=O)CSc2cccc(O)c2)[C@]2(C)C(C)CCC3(CCC(=O)C32)[C@@H](C)[C@@H]1O (stereo partly shown) [Example 7, 14-O-[(3-Hydroxy-phenylsulfanyl)-acetyl]-mutilin] | very good activity | – | – | – | – | – | – | – |
| > 25.6 µg/mL | > 25.6 µg/mL | > 25.6 µg/mL | 0.025 µg/mL (≈ 0.0512 µM) | 0.05 µg/mL (≈ 0.102 µM) | 0.05 µg/mL (≈ 0.102 µM) | 0.16 µg/mL (≈ 0.327 µM) | – | C=C[C@]1(C)C[C@@H](OC(=O)CSc2ccccc2F)[C@]2(C)C(C)CCC3(CCC(=O)C32)[C@@H](C)[C@@H]1O (stereo partly shown) [Example 3, 14-O-[(2-Fluoro-phenylsulfanyl)-acetyl]-mutilin] | – | – | – | – | – | – | – | – |
| > 25.6 µg/mL | > 25.6 µg/mL | > 25.6 µg/mL | ≤ 0.0125 µg/mL | ≤ 0.0125 µg/mL | ≤ 0.0125 µg/mL | 0.16 µg/mL (≈ 0.329 µM) | – | C=C[C@]1(C)C[C@@H](OC(=O)CSc2ccccc2O)[C@]2(C)C(C)CCC3(CCC(=O)C32)[C@@H](C)[C@@H]1O (stereo partly shown) [Example 9, 14-O-[(2-Hydroxy-phenylsulfanyl)-acetyl]-mutilin] | – | – | – | – | – | – | – | – |
| 3.2 µg/mL (≈ 6.55 µM) | > 25.6 µg/mL | > 25.6 µg/mL | ≤ 0.0125 µg/mL | ≤ 0.0125 µg/mL | ≤ 0.0125 µg/mL | 0.04 µg/mL (≈ 0.0819 µM) | ≥ 2 | C=C[C@]1(C)C[C@@H](OC(=O)CSc2cccc(F)c2)[C@]2(C)C(C)CCC3(CCC(=O)C32)[C@@H](C)[C@@H]1O (stereo partly shown) [Example 1, 14-O-[(3-Fluoro-phenylsulfanyl)-acetyl]-mutilin] | very good activity | – | – | – | – | – | – | – |
| > 25.6 µg/mL | > 25.6 µg/mL | > 25.6 µg/mL | 0.05 µg/mL (≈ 0.0987 µM) | 0.1 µg/mL (≈ 0.197 µM) | 0.1 µg/mL (≈ 0.197 µM) | 0.32 µg/mL (≈ 0.632 µM) | – | C=C[C@]1(C)C[C@@H](OC(=O)CSc2ccc(F)cc2F)[C@]2(C)C(C)CCC3(CCC(=O)C32)[C@@H](C)[C@@H]1O (stereo partly shown) [Example 6, 14-O-[(2,4-Difluoro-phenylsulfanyl)-acetyl]-mutilin] | – | – | – | – | – | – | – | – |
